Patent US11077090B2, “Compounds and compositions and uses thereof” (Sunovion Pharmaceuticals Inc., priority 2016, dated 2021)

Tested on: compound-treated mice
Assay: Neuropharmacological assay (SmartCube): behavioral activity signature and minimal effective dose
Format: in vivo
Conditions: for minimal effective dose: Mus musculus, ip, MED = dose having 50% or more total activity, read-out: Potency: minimal effective dose (MED), binned; for AD: ADHD (probability of activity signature) / AG: analgesic (probability of activity signature) / AX: anxiolytic (probability of activity signature) / CE: cognitive enhancer (probability of activity signature) / DP: anti-depressant (probability of activity signature) / MS: mood stabilizer (probability of activity signature) / PS: anti-psychotic (probability of activity signature) / SD: sedative hypnotic (probability of activity signature) / UN: uncharacterized CNS activity (probability of activity signature): i.p. 15 min before test, most efficacious dose(s)
Procedure, shortened: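 Video-recorded behavior is compared algorithmically against a reference-compound database, yielding class probabilities (best dose reported). Compounds given i.p. in NMP/PEG/propylene glycol 15 min pre-test at 3 doses; potency as MED, the dose (mpk, range usually 0.3–30) reaching ≥50% total activity.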

Structure (SMILES) | minimal effective dose | AD: ADHD (probability of activity signature) | AG: analgesic (probability of activity signature) | AX: anxiolytic (probability of activity signature) | CE: cognitive enhancer (probability of activity signature) | DP: anti-depressant (probability of activity signature) | MS: mood stabilizer (probability of activity signature) | PS: anti-psychotic (probability of activity signature) | SD: sedative hypnotic (probability of activity signature) | UN: uncharacterized CNS activity (probability of activity signature)
Cc1ccc2c(c1)CO[C@H](C)[C@@H]2N [Example 190] | 3 to 10 mg/kg | + (LOQ ≤ + <5%) | + (LOQ ≤ + <5%) | ++ (5% ≤ ++ <25%) | ++ (5% ≤ ++ <25%) | + (LOQ ≤ + <5%) | + (LOQ ≤ + <5%) | ++ (5% ≤ ++ <25%) | ++ (5% ≤ ++ <25%) | ++++ (50% ≤ ++++)
C[C@@H]1OCc2ccc(Cl)cc2[C@@H]1N.Cl [Example 194] | 3 to 10 mg/kg | + (LOQ ≤ + <5%) | ++ (5% ≤ ++ <25%) | ++ (5% ≤ ++ <25%) | ++ (5% ≤ ++ <25%) | ++ (5% ≤ ++ <25%) | + (LOQ ≤ + <5%) | ++ (5% ≤ ++ <25%) | + (LOQ ≤ + <5%) | ++++ (50% ≤ ++++)
C[C@@H]1OCc2ccc3c(c2[C@@H]1N)CCCC3.Cl [Example 196] | 10 to 30 mg/kg | + (LOQ ≤ + <5%) | + (LOQ ≤ + <5%) | ++ (5% ≤ ++ <25%) | ++ (5% ≤ ++ <25%) | + (LOQ ≤ + <5%) | + (LOQ ≤ + <5%) | ++ (5% ≤ ++ <25%) | + (LOQ ≤ + <5%) | +++ (25% ≤ +++ <50%)
C[C@H]1OCc2ccc3c(c2[C@@H]1N)CCCC3.Cl [Example 197] | 3 to 10 mg/kg | + (LOQ ≤ + <5%) | + (LOQ ≤ + <5%) | ++ (5% ≤ ++ <25%) | + (LOQ ≤ + <5%) | + (LOQ ≤ + <5%) | + (LOQ ≤ + <5%) | + (LOQ ≤ + <5%) | + (LOQ ≤ + <5%) | ++++ (50% ≤ ++++)
Cc1ccc(Cl)c2c1[C@H](N)[C@@H](C)OC2.Cl [Example 200] | 3 to 10 mg/kg | + (LOQ ≤ + <5%) | ++ (5% ≤ ++ <25%) | +++ (25% ≤ +++ <50%) | ++ (5% ≤ ++ <25%) | ++ (5% ≤ ++ <25%) | + (LOQ ≤ + <5%) | ++ (5% ≤ ++ <25%) | + (LOQ ≤ + <5%) | ++++ (50% ≤ ++++)
CC[C@@H]1OCc2ccc(F)cc2[C@@H]1N.Cl [Example 201] | 3 to 10 mg/kg | + (LOQ ≤ + <5%) | + (LOQ ≤ + <5%) | ++ (5% ≤ ++ <25%) | ++ (5% ≤ ++ <25%) | + (LOQ ≤ + <5%) | + (LOQ ≤ + <5%) | ++ (5% ≤ ++ <25%) | + (LOQ ≤ + <5%) | ++++ (50% ≤ ++++)
CC[C@H]1OCc2ccc(F)cc2[C@@H]1N.Cl [Example 202] | < 3 mg/kg | + (LOQ ≤ + <5%) | ++ (5% ≤ ++ <25%) | +++ (25% ≤ +++ <50%) | ++ (5% ≤ ++ <25%) | ++ (5% ≤ ++ <25%) | + (LOQ ≤ + <5%) | ++ (5% ≤ ++ <25%) | + (LOQ ≤ + <5%) | ++++ (50% ≤ ++++)
C[C@H]1OC[C@@H](N)c2cc(Cl)ccc21.Cl [Example 203] | 3 to 10 mg/kg | + (LOQ ≤ + <5%) | ++ (5% ≤ ++ <25%) | ++ (5% ≤ ++ <25%) | ++ (5% ≤ ++ <25%) | ++ (5% ≤ ++ <25%) | + (LOQ ≤ + <5%) | +++ (25% ≤ +++ <50%) | ++ (5% ≤ ++ <25%) | ++++ (50% ≤ ++++)
C[C@@H]1OC[C@@H](N)c2cc(Cl)ccc21.Cl [Example 204] | 3 to 10 mg/kg | + (LOQ ≤ + <5%) | + (LOQ ≤ + <5%) | ++ (5% ≤ ++ <25%) | ++ (5% ≤ ++ <25%) | + (LOQ ≤ + <5%) | + (LOQ ≤ + <5%) | ++ (5% ≤ ++ <25%) | ++ (5% ≤ ++ <25%) | ++++ (50% ≤ ++++)
C[C@H]1OC[C@@H](N)c2cc(F)ccc21.Cl [Example 205] | 3 to 10 mg/kg | + (LOQ ≤ + <5%) | + (LOQ ≤ + <5%) | +++ (25% ≤ +++ <50%) | ++ (5% ≤ ++ <25%) | ++ (5% ≤ ++ <25%) | + (LOQ ≤ + <5%) | ++ (5% ≤ ++ <25%) | ++ (5% ≤ ++ <25%) | +++ (25% ≤ +++ <50%)
C[C@@H]1OC[C@@H](N)c2cc(F)ccc21.Cl [Example 206] | 3 to 10 mg/kg | + (LOQ ≤ + <5%) | ++ (5% ≤ ++ <25%) | ++++ (50% ≤ ++++) | ++ (5% ≤ ++ <25%) | ++ (5% ≤ ++ <25%) | + (LOQ ≤ + <5%) | ++ (5% ≤ ++ <25%) | + (LOQ ≤ + <5%) | +++ (25% ≤ +++ <50%)
CC[C@H]1OCc2cccc(C)c2[C@@H]1N.Cl [Example 207] | 3 to 10 mg/kg | + (LOQ ≤ + <5%) | ++ (5% ≤ ++ <25%) | ++ (5% ≤ ++ <25%) | ++ (5% ≤ ++ <25%) | ++ (5% ≤ ++ <25%) | + (LOQ ≤ + <5%) | ++ (5% ≤ ++ <25%) | + (LOQ ≤ + <5%) | ++++ (50% ≤ ++++)
CC[C@@H]1OCc2cccc(C)c2[C@@H]1N.Cl [Example 208] | 3 to 10 mg/kg | + (LOQ ≤ + <5%) | + (LOQ ≤ + <5%) | +++ (25% ≤ +++ <50%) | ++ (5% ≤ ++ <25%) | ++ (5% ≤ ++ <25%) | ++ (5% ≤ ++ <25%) | ++ (5% ≤ ++ <25%) | + (LOQ ≤ + <5%) | +++ (25% ≤ +++ <50%)
Cc1ccc2c(c1)[C@H](N)[C@@H](C(C)C)OC2 [Example 210] | 3 to 10 mg/kg | + (LOQ ≤ + <5%) | ++ (5% ≤ ++ <25%) | ++ (5% ≤ ++ <25%) | ++ (5% ≤ ++ <25%) | + (LOQ ≤ + <5%) | + (LOQ ≤ + <5%) | + (LOQ ≤ + <5%) | + (LOQ ≤ + <5%) | ++++ (50% ≤ ++++)
Cc1ccc2c(c1)[C@H](N)[C@H](C(C)C)OC2 [Example 211] | 3 to 10 mg/kg | + (LOQ ≤ + <5%) | + (LOQ ≤ + <5%) | ++ (5% ≤ ++ <25%) | + (LOQ ≤ + <5%) | ++ (5% ≤ ++ <25%) | + (LOQ ≤ + <5%) | ++ (5% ≤ ++ <25%) | +++ (25% ≤ +++ <50%) | ++++ (50% ≤ ++++)
